This note sets out measurements from patent US4321384A, “Antihypertensive agents” (American Home Products Corporation, priority 1981, dated 1982).

The subject of one assay is rabbit aortic strips. Nature of the assay: Ca+2 antagonism: relaxation of potassium-contracted rabbit aortic strips. The class given is cell-based. The note with it: Oryctolagus cuniculus; 10^-5 M bath concentration; strips contracted with 100 millimoles potassium ion; read-out: percent relaxation (P.R.). On the procedure: After a stable active tension has developed in the strip, as measured by Statham UC-2 force transducers and recorded on an eight channel Beckman Dynograph Polygraphic Recorder, an amount of the antagonist was added to the organ bath to make a 10^-5 molar concentration of antagonist. The […] effect, expressed as percent relaxation, was taken from the mean of at least two experiments. […] A Ca^+2 antagonist producing a 20 percent relaxation of aortic tissue in this test procedure at a 10^-5 molar bath concentration of the antagonist, generally produces a significant reduction in blood pressure when a sufficient amount is given to the spontaneously hypertensive rat. The following examples illustrate the preparation of a representative number of compounds of this invention. After each example, the Ca^+2 antagonist activity of the compound is presented in terms of percent relaxation (P.R.) at the stated concentration. Similarly, the antihypertensive activity is reported in terms of millimeters mercury (mmHg) blood pressure (B.P.) reduction at the stated time post 50 mg/kg oral dosing.

The subject of assay [1] is spontaneously hypertensive rats. Description: Systolic blood pressure lowering in spontaneously hypertensive rats. In kind it is in vivo, rat. Here is the method: The in vivo blood pressure lowering ability of the compounds of this invention was established by measuring the systolic pressure of spontaneously hypertensive rats with a Decker Caudal Plethysmograph or similar sensor device. The compound being tested is administered to groups of four rats and their blood pressure is read prior to compound administration and at 1.5 and 4 hours after compound administration. Depending upon the behavior of the compound being tested, the schedule of blood pressure readings and route of administration is modified. Initially the compounds are administered orally but where compound solubility is a factor, the compounds may be administered parenterally (i.e. i.p., i.m., s.c., i.v., etc.) as desired. The compounds of this invention were initially administered orally at a standard testing dose of 50 mg/kg.
The following examples illustrate the preparation of a representative number of compounds of this invention. After each example, the Ca^+2 antagonist activity of the compound is presented in terms of percent relaxation (P.R.) at the stated concentration. Similarly, the antihypertensive activity is reported in terms of millimeters mercury (mmHg) blood pressure (B.P.) reduction at the stated time post 50 mg/kg oral dosing.

Where [2] appears, read: 1.5 hours post 50 mg/kg oral dosing.
Setting [3] is: 4 hours post 50 mg/kg oral dosing.

In the case of `COC(=O)C1=C(C)NC2=C(C(=O)CN(C)C2)C1c1ccccc1[N+](=O)[O-]` (stereo not drawn) [Example 1, 1,4,5,6,7,8-Hexahydro-2,7-dimethyl-4-(2-nitrophenyl)-5-oxo-1,7-naphthyridine-3-carboxylic acid methyl ester], in the assay with rabbit aortic strips, the inhibition at 10 µM was 14%. Further, the “blood pressure (B.P.) reduction” value in assay [1] (setting [2]) was -27 mmHg; in assay [1] (setting [3]), -21 mmHg.
In the same order, the values of `COC(=O)C1=C(C)NC2=C(C(=O)CN(C)C2)C1c1ccccc1C` (stereo not drawn) [Example 2, 1,4,5,6,7,8-Hexahydro-2,7-dimethyl-4-(2-methylphenyl)-5-oxo-1,7-naphthyridine-3-carboxylic acid methyl ester] are 31%, -57 mmHg and -28 mmHg.
Regarding `COC(=O)C1=C(C)NC2=C(C(=O)CN(C)C2)C1c1ccccc1C(F)(F)F` (stereo not drawn) [Example 4, 1,4,5,6,7,8-Hexahydro-2,7-dimethyl-5-oxo-4-[2-(trifluoromethyl)-phenyl]-1,7-naphthyridine-3-carboxylic acid methyl ester], the inhibition at 10 µM in the assay on rabbit aortic strips was found to be 48%. The figures for the “blood pressure (B.P.) reduction” value in assay [1] (setting [2]) and in assay [1] (setting [3]) were -68 mmHg and -70 mmHg, respectively.
As for `COC(=O)C1=C(C)NC2=C(C(=O)CN(C)C2)C1c1cccc([N+](=O)[O-])c1` (stereo not drawn) [Example 6, 1,4,5,6,7,8-Hexahydro-2,7-dimethyl-4-(3-nitrophenyl)-5-oxo-1,7-naphthyridine-3-carboxylic acid methyl ester], the inhibition at 10 µM in the assay with rabbit aortic strips is 35%. The “blood pressure (B.P.) reduction” value in assay [1] (setting [2]) is listed as -85 mmHg; in assay [1] (setting [3]) it was -47 mmHg.
As for `COC(=O)C1=C(C)NC2=C(C(=O)CNC2)C1c1ccccc1C` (stereo not drawn) [Example 7, 1,4,5,6,7,8-Hexahydro-2-methyl-4-(2-methylphenyl)-5-oxo-1,7-naphthyridine-3-carboxylic acid:methyl ester], in the assay on rabbit aortic strips, the inhibition at 10 µM was determined as 46%. For the same compound, the results for the “blood pressure (B.P.) reduction” value in assay [1] (setting [2]) and in assay [1] (setting [3]) were -77 mmHg and -64 mmHg, respectively.
For the compound `COC(=O)C1=C(C)NC2=C(C(=O)CN(C)C2)C1c1ccccc1Cl` (stereo not drawn) [Example 8, 4-(2-chlorophenyl)-1,4,5,6,7,8-Hexahydro-2,7-dimethyl-5-oxo-1,7-naphthyridine-3-carboxylic acid methyl ester], the inhibition at 10 µM with rabbit aortic strips amounted to 28.3%. Also, the results for the “blood pressure (B.P.) reduction” value in assay [1] (setting [2]) and in assay [1] (setting [3]) were -54 mmHg and -30 mmHg, respectively.
On to `COC(=O)C1=C(C)NC2=C(C(=O)CN(C)C2)C1c1c(Cl)cccc1Cl` (stereo not drawn) [Example 9, 4-(2,6-Dichlorophenyl)-1,4,5,6,7,8-hexahydro-2,7-dimethyl-5-oxo-1,7-naphthyridine-3-carboxylic acid methyl ester], for which, in the assay with rabbit aortic strips, the inhibition at 10 µM came to 41.5%. Besides, the figures for the “blood pressure (B.P.) reduction” value in assay [1] (setting [2]) and in assay [1] (setting [3]) were -22 mmHg and -43 mmHg, respectively.
`COC(=O)C1=C(C)NC2=C(C(=O)CN(C)C2)C1c1cc(C)ccc1C` (stereo not drawn) [Example 11, 4-(2,5-Dimethylphenyl)-1,4,5,6,7,8-hexahydro-2,7-dimethyl-5-oxo-1,7-naphthyridine-3-carboxylic acid methyl ester]: in the assay with rabbit aortic strips, the inhibition at 10 µM was determined as 22%.
As to `COC(=O)C1=C(C)NC2=C(C(=O)CNC2)C1c1ccccc1C(F)(F)F` (stereo not drawn) [Example 12, 1,4,5,6,7,8-Hexahydro-2-methyl-5-oxo-4-[2-(trifluoromethyl)phenyl]-1,7-naphthyridine-3-carboxylic acid methyl ester], in the assay with rabbit aortic strips, the inhibition at 10 µM turned out to be 89.1%. Besides, the “blood pressure (B.P.) reduction” value in assay [1] (setting [2]) was -88 mmHg.
As for `COC(=O)C1=C(C)NC2=C(C(=O)CNC2)C1c1cccc(C(F)(F)F)c1` (stereo not drawn) [Example 14, 1,4,5,6,7,8-Hexahydro-2-methyl-5-oxo-4-[3-(trifluoromethyl)phenyl]-1,7-naphthyridine-3-carboxylic acid methyl ester], the inhibition at 10 µM in the assay with rabbit aortic strips stood at 84%. Besides, the “blood pressure (B.P.) reduction” value is given as -51 mmHg in assay [1] (setting [2]) and -43 mmHg in assay [1] (setting [3]).
